IC50 data for 1 compound are collected here from BindingDB's records for doi:10.1016/j.bmcl.2015.05.094 (Orleans University, 2015).

The test can be described thus: Antagonist activity at human alpha-7 nicotinic acetylcholine receptor expressed in rat GH3 cells assessed as inhibition of epibatidine-induced Ca2+ influx preincubated for 5 mins followed by epibatidine induction measured for 3 mins by fluorescence assay.

SMILES strings stand for the structures.

In the case of `COc1ccc(CC2C[N+]3(C)CCC2CC3)cc1` (stereo unspecified), the IC50 was 12.3 µM.
